29 compounds from patent EP4806900A2, “RAS INHIBITORS” (Revolution Medicines, Inc., priority 2019, dated 2021) can be followed below.

Some results are limits rather than exact numbers.

One assay deals with NCI-H358 (K-Ras G12C). Description: CellTiter-Glo cell viability assay, NCI-H358. Type of assay: cell-based, human. To be noted: Homo sapiens, NCI-H358, Table 5; read-out: H358 Cell Viability assay data (K-Ras G12C, IC50). How it is done:
Note - The following protocol describes a procedure for monitoring cell viability of K-Ras mutant cancer cell lines in response to a compound of the invention. Other RAS isoforms may be employed, though the number of cells to be seeded will vary based on cell line used.
Test compounds (132.5 nL) were directly dispensed into the assay plates containing cells. […] On day 5, assay plates and their contents were equilibrated to room temperature for approximately 30 minutes. […] Luminescence was measured using the PerkinElmer Enspire. Data were normalized by the following: (Sample signal/Avg. DMSO)*100. The data were fit using a four-parameter logistic fit.
A general note: In ATP-based viability assays light output follows the ATP content of the culture.
On to `CO[C@@H](C)c1ncccc1-c1c2c3cc(ccc3n1CC(F)(F)F)-c1csc(n1)C[C@H](NC(=O)[C@H](C(C)C)N(C)C(=O)N1C[C@@H]3OCCN(C(=O)/C=C/C(F)F)[C@@H]3C1)C(=O)N1CCC[C@H](N1)C(=O)OCC(C)(C)C2` (atropisomer, axis not shown) [Compound A572], for which the IC50 was less than 0.01 µM.

In the case of `CCn1c(-c2cccnc2[C@H](C)OC)c2c3cc(ccc31)-c1cc(cc(C(F)F)c1)C[C@H](NC(=O)[C@H](C(C)C)N(C)C(=O)[C@H]1CCN(C(=O)C#CC(C)(C)N3CCC3)C1)C(=O)N1CCC[C@H](N1)C(=O)OCC(C)(C)C2` (atropisomer, axis not shown) [Compound A466], the IC50 is less than 0.01 µM.

As to `CO[C@@H](C)c1ncccc1-c1c2c3cc(ccc3n1CC(F)(F)F)-c1csc(n1)C[C@H](NC(=O)[C@H](C(C)C)N(C)C(=O)N1C[C@@H]3OCCN(C(=O)/C=C/CN(C)C)[C@@H]3C1)C(=O)N1CCC[C@H](N1)C(=O)OCC(C)(C)C2` (atropisomer, axis not shown) [Compound A573], the IC50 lay in the range of 0.01 to 0.1 µM.

The assay is the same for the next values; noted with them: Homo sapiens, NCI-H358, read-out: H358 Cell Viability assay data (K-Ras G12C, IC50, uM), Table 5.
Turning to `C=CC(=O)N1CCOC2CCN(C(=O)N(C)C(C(=O)NC3Cc4nc(cs4)-c4ccc5c(c4)c(c(-c4cccnc4C(C)OC)n5CC)CC(C)(C)COC(=O)C4CCCN(N4)C3=O)C(C)C)CC21` (centres unmarked) [Compound A596], the IC50 was less than 0.01 µM.

Regarding `C=CC(=O)N1CC[C@H](C(=O)N(C)[C@H](C(=O)N[C@H]2Cc3nc(cs3)-c3ccc4c(n3)c(c(-c3cccnc3[C@H](C)OC)n4CC)CC(C)(C)COC(=O)[C@@H]3CCCN(N3)C2=O)C(C)C)C1` [Compound A347, (2S)-N-[(7S,13S)-21-ethyl-20-{2-[(1S)-1-methoxyethyl]pyridin-3-yl}-17,17-dimethyl-8,14-dioxo-15-oxa-4-thia-9,21,25,27,28-pentaazapentacyclo[17.5.2.1^{2,5}.1^{9,13}.0^{22,26}]octacosa-1(25),2,5(28),19,22(26),23-hexaen-7-yl]-3-methyl-2-{N-methyl-1-[(3S)-1-(prop-2-enoyl)pyrrolidin-3-yl]formamido}butanamide], the IC50 lay in the range of 0.1 to 1 µM.

As to `CCn1c(-c2cccnc2[C@H](C)OC)c2c3cc(ccc31)-c1cccc(c1)C[C@H](NC(=O)[C@H](C(C)C)N(C)C(=O)[C@H]1CCN(C(=O)C#CC(C)(C)N3CCC(F)(F)C3)C1)C(=O)N1CCC[C@H](N1)C(=O)OCC(C)(C)C2` (relative stereo) [Compound A325], the IC50 is 0.1 to 1 µM.

Consider `C=CC(=O)N1CC[C@H](C(=O)N(C)[C@H](C(=O)N[C@H]2Cc3cc(O)cc(c3)-c3ccc4c(c3)c(c(-c3cccnc3[C@H](CC)OC)n4CC)CC(C)(C)COC(=O)[C@@H]3CCCN(N3)C2=O)C(C)C)C1` (atropisomer, axis not shown) [Compound A181], for which the IC50 is less than 0.01 µM.

For `C=CC(=O)N1CC[C@H](C(=O)N(C)[C@H](C(=O)N[C@H]2Cc3cc(O)cc(c3)-c3ccc4c(c3)c(c(-c3cc(C)cnc3[C@H](C)OC)n4CC)CC(C)(C)COC(=O)[C@@H]3CCCN(N3)C2=O)C(C)C)C1` [Compound A167], the IC50 is less than 0.01 µM.

For `CCn1c(-c2cccnc2[C@H](C)OC)c2c3cc(ccc31)-c1cc(O)cc(c1)C[C@H](NC(=O)[C@H](C(C)C)N(C)C(=O)[C@H]1CCN(C(=O)C#CCN3CCOCC3)C1)C(=O)N1CCC[C@H](N1)C(=O)OCC(C)(C)C2` [Compound A182], the IC50 was less than 0.01 µM.

On to `C=CS(=O)(=O)N1CC[C@H](C(=O)N(C)[C@H](C(=O)N[C@H]2Cc3cccc(c3)-c3ccc4c(c3)c(c(-c3cccnc3[C@H](C)OC)n4CC)CC(C)(C)COC(=O)[C@@H]3CCCN(N3)C2=O)C(C)C)C1` (atropisomer, axis not shown) [Compound A124], for which the IC50 was less than 0.01 µM.

Staying with this assay, now noted: Table 5; read-out: H358 Cell Viability assay data (K-Ras G12C, IC50).
Take `C=CS(=O)(=O)N1CC[C@H](C(=O)N(C)[C@H](C(=O)N[C@H]2Cc3cc(O)cc(c3)-c3ccc4c(c3)c(c(-c3cccnc3COC)n4CC)CC(C)(C)COC(=O)[C@@H]3CCCN(N3)C2=O)C(C)C)C1` [Compound A69]: the IC50 fell in the range of 0.01 to 0.1 µM.

Take `C=CC(=O)N1CC[C@H](C(=O)N(C)[C@H](C(=O)N[C@H]2Cc3cc(O)cc(c3)-c3ccc4c(c3)c(c(-c3ccccc3COC)n4CC)CC(C)(C)COC(=O)[C@@H]3CCCN(N3)C2=O)C2CCCC2)C1` [Compound A27]: the IC50 lay in the range of 0.01 to 0.1 µM.

Take `C=CC(=O)N1CC[C@H](C(=O)N(C)[C@H](C(=O)N[C@H]2Cc3cc(O)cc(c3)-c3ccc4c(c3)c(c(-c3c(F)cccc3CCOC)n4CC)CC(C)(C)COC(=O)[C@@H]3CCCN(N3)C2=O)C(C)C)C1` [Compound A25]: the IC50 is 0.1 to 1 µM.

With `CCn1c(-c2cccnc2COC)c2c3cc(ccc31)-c1cc(O)cc(c1)C[C@H](NC(=O)[C@H](C(C)C)N(C)C(=O)c1ccc(NC(=O)/C=C/CN(C)C)cn1)C(=O)N1CCC[C@H](N1)C(=O)OCC(C)(C)C2` [Compound A67, (2E)-4-(dimethylamino)-N-(6-{[(1S)-1-{[(8S,14S)-22-ethyl-4-hydroxy-21-[2-(methoxymethyl)pyridin-3-yl]-18,18-dimethyl-9,15-dioxo-16-oxa-10,22,28-triazapentacyclo[18.5.2.1^2,^6.1^10,^14.0^23,^27]nonacosa-1(26),2,4,6(29),20,23(27),24-heptaen-8-yl]carbamoyl}-2-methylpropyl](methyl)carbamoyl}pyridin-3-yl)but-2-enamide], the IC50 fell in the range of 0.1 to 1 µM.

As to `C=CC(=O)N1CC[C@H](C(=O)N(C)[C@H](C(=O)N[C@H]2Cc3cc(O)cc(c3)-c3ccc4c(c3)c(c(-c3ccccc3CCOC)n4C(C)(C)C#N)CC(C)(C)COC(=O)[C@@H]3CCCN(N3)C2=O)C(C)C)C1` [Compound A34], the IC50 lay within 0.01 to 0.1 µM.

Turning to `C=CC(=O)N1CC2(CCN2C(=O)N(C)[C@H](C(=O)N[C@H]2Cc3nc(n(C)n3)-c3ccc4c(c3)c(c(-c3cccnc3[C@H](C)OC)n4CC)CC(C)(C)COC(=O)[C@@H]3CCCN(N3)C2=O)C(C)C)C1` (atropisomer, axis not shown) [Compound A612], the IC50 was 0.1 to 1 µM.

Turning to `C=CC(=O)N1CC[C@H](C(=O)N(C)[C@H](C(=O)N[C@H]2Cc3cc(O)cc(c3)-c3ccc4c(c3)c(c(-c3cccnc3)n4CC)CC(C)(C)COC(=O)[C@@H]3CCCN(N3)C2=O)C(C)C)C1` [Compound A45], the IC50 lay in the range of 0.01 to 0.1 µM.

Regarding `CCn1c(-c2cccnc2COC)c2c3cc(ccc31)-c1cc(O)cc(c1)C[C@H](NC(=O)[C@H](C(C)C)N(C)C(=O)[C@H]1CCN(C(=O)/C=C/CN3CCN(C)CC3)C1)C(=O)N1CCC[C@H](N1)C(=O)OCC(C)(C)C2` [Compound A72], the IC50 is more than 1 µM.

In the case of `C=CC(=O)N1CC[C@H](C(=O)N(C)[C@H](C(=O)N[C@H]2Cc3cc(O)cc(c3)-c3ccc4c(c3)c(c(-c3ccc(CN5CCCC5)cc3)n4CC)CC(C)(C)COC(=O)[C@@H]3CCCN(N3)C2=O)C(C)C)C1` [Examples A10], the IC50 was in the range of 0.01 to 0.1 µM.

In the case of “(2S)-N-[(8S,14S,20P)-22-ethyl-21-{4-[(1S)-1-methoxyethyl]pyridin-3-yl}-18,18-dimethyl-9,15-dioxo-16-oxa-10,22,28-triazapentacyclo[18.5.2.1^2,^6.1^10,^14.0^23,^27]nonacosa-1(26),2,4,6(29),20,23(27),24-heptaen-8-yl]-3-methyl-2-{N-methyl-1-[(3S)-1-(prop-2-enoyl)pyrrolidin-3-yl]formamido}butanamide [Compound A115]”, the IC50 was 0.01 to 0.1 µM.

For `C=CC(=O)N1CC[C@H](C(=O)N(C)[C@H](C(=O)N[C@H]2Cc3cc(O)cc(c3)-c3ccc4c(c3)c(c(-c3nccnc3COC)n4CC)CC(C)(C)COC(=O)[C@@H]3CCCN(N3)C2=O)C(C)C)C1` [Compound A85], the IC50 is 0.1 to 1 µM.

For `C=CC(=O)N1CC2(CCN2C(=O)N(C)[C@H](C(=O)N[C@H]2Cc3cccc(c3)-c3ccc4c(c3)c(c(-c3cccnc3[C@H](C)OC)n4CC)CC(C)(C)COC(=O)[C@@H]3CCCN(N3)C2=O)C(C)C)C1` (atropisomer, axis not shown) [Compound A684], the IC50 is less than 0.01 µM.

`C=CC(=O)N1CC[C@H](C(=O)N(C)[C@H](C(=O)N[C@H]2Cc3cc(O)cc(c3)-c3ccc4c(c3)c(c(-c3cccc(CN(C)C)c3)n4CC)CC(C)(C)COC(=O)[C@@H]3CCCN(N3)C2=O)C(C)C)C1` [Compound A30]: the IC50 was 0.01 to 0.1 µM.

Regarding `C=CC(=O)N1CC[C@H](C(=O)N(C)[C@H](C(=O)N[C@H]2Cc3cc(O)cc(c3)-c3ccc4c(c3)c(c(C3=C(COC)COCC3)n4CC)CC(C)(C)COC(=O)[C@@H]3CCCN(N3)C2=O)C(C)C)C1` [Compound A58], the half-maximal inhibitory concentration (IC50) is 0.01 to 0.1 µM.

Take `C=CC(=O)N1CC[C@H](C(=O)N(C)[C@H](C(=O)N[C@H]2Cc3cc(O)cc(c3)-c3ccc4c(c3)c(c(-c3ccc(C5CCN(C)CC5)cc3)n4CC)CC(C)(C)COC(=O)[C@@H]3CCCN(N3)C2=O)C(C)C)C1` [Compound A39]: the IC50 is 0.01 to 0.1 µM.

With `CCn1c(-c2ccccc2CN(C)C)c2c3cc(ccc31)-c1cc(O)cc(c1)C[C@H](NC(=O)[C@H](C(C)C)N(C)C(=O)c1nc(NC(=O)/C=C/CN(C)C)cs1)C(=O)N1CCC[C@H](N1)C(=O)OCC(C)(C)C2` [Compound A90], the IC50 is more than 1 µM.

On to `C=CC(=O)N1CC[C@H](C(=O)N(C)[C@H](C(=O)N[C@H]2Cc3cc(O)cc(c3)-c3ccc4c(c3)c(c(-c3cncc(CN(C)C)c3)n4CC)CC(C)(C)COC(=O)[C@@H]3CCCN(N3)C2=O)C(C)C)C1` [Compound A73], for which the IC50 fell in the range of 0.01 to 0.1 µM.

In the case of `C=CC(=O)N1CC[C@H](C(=O)N(C)[C@H](C(=O)N[C@H]2Cc3cc(O)cc(c3)-c3ccc4c(c3)c(c(-c3cccnc3COC)n4C)CC(C)(C)COC(=O)[C@@H]3CCCN(N3)C2=O)C(C)C)C1` [Compound A66], the IC50 lay in the range of 0.01 to 0.1 µM.

Staying with this assay, now noted: read-out: H358 Cell Viability assay data (K-Ras G12C, IC50); Table 5.
Regarding `C=CC(=O)N1CCN(C(=O)N(C)[C@H](C(=O)N[C@H]2Cc3nc(cs3)-c3ccc4c(c3)c(c(-c3cccnc3[C@H](C)OC)n4CC(F)(F)F)CC(C)(C)COC(=O)[C@@H]3CCCN(N3)C2=O)C(C)C)CC1` [Compound A465], the IC50 is less than 0.01 µM.

The term IC50 denotes the midpoint of a concentration-inhibition curve.
